# Values of other authors as cited in patent US20100055036A1, “PET VISUALIZATION OF AMYLOID-ASSOCIATED NEUROINFLAMMATION IN THE BRAIN” (National Institute of Radiolotgical Sciences, priority 2007, published 2010).
# Tested on: amyloid plaque lesions in mouse brain
# Conditions: mice developing abundant plaque lesions vs WT
smiles,measurement,value
"[11CH3]Nc1ccc(-c2nc3ccc(O)cc3s2)cc1 [[^11C]6-OH-BTA-1, N-[^11C]methyl-2-(4′-methylaminophenyl)-6-hydroxybenzothiazole]",PET data in brains of plaque-bearing mice compared with wild-type mouse brains,virtually indistinguishable
